Test results reported in US20050054629A1, “Compounds and methods of treating cell proliferative diseases” (priority 2002, published 2005).

How the values were obtained:
NIH3T3 = test: Cytoskeleton analysis, actin staining (FITC-phalloidin); format: cell-based, mouse
Procedure: (§1) Since major rearrangements of cytoskeleton are observed in tumor cells and since the small GTPases are known to regulate these events, analysis of actin cytoskeleton was performed. Subconfluent cells seeded onto coverslips were treated with different concentration of compound (1, 10, 17.5, 25 and 50 μM) or vehicle for 24 h, before being fixed in 4% formaldehyde for 15 min., permeabilized in 0.2% Triton X100 for 5 minutes and incubated in PowerBlock (Biogenex) for 10 min. Actin filaments were stained with 0.5 μg/ml fluorescein isothiocyanate (FITC)-labelled phalloidin for 1 hour. Analysis was performed using an inverted fluorescent microscope.

NIH3T3 mouse fibroblasts = test: Cytotoxicity assay (MTT), 6 days; format: cell-based; conditions: NIH3T3, 144 h, 6 days of treatment, read-out: Toxicity 6d (IC 50, μM) NIH3T3
Method in brief: (§2)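 Compound was added 24 h after seeding at six concentrations from 0 to 50 μM. Six days later, viability was assessed by MTT reduction and absorbance at 550 nm, giving IC50 values from triplicate assays.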

MCF10-A = test: Cytotoxicity assay (MTT), 6 days; format: cell-based; conditions: Homo sapiens, MCF-10A, 144 h, 6 days of treatment, read-out: Toxicity 6d (IC 50, μM) MCF10-A
Method in brief: as §2

H460 lung carcinoma = test: Cytotoxicity assay (MTT), 6 days; format: cell-based; conditions: Homo sapiens, NCI-H460, 144 h, 6 days of treatment, read-out: Toxicity 6d (IC 50, μM) H460
Method in brief: as §2

[1] = system: MDA-MB-231 breast carcinoma; test: Cytotoxicity assay (MTT), 6 days; format: cell-based; conditions: Homo sapiens, MDA-MB-231, 144 h, 6 days of treatment, read-out: Toxicity 6d (IC 50, μM) MDA231
Method in brief: as §2

MCF-7 breast carcinoma = test: Cytotoxicity assay (MTT), 6 days; format: cell-based; conditions: Homo sapiens, MCF7, 144 h, 6 days of treatment, read-out: Toxicity 6d (IC 50, μM) MCF7
Method in brief: as §2

MRC-5 = test: Cytotoxicity assay (MTT), 6 days; format: cell-based; conditions: Homo sapiens, MRC5, 144 h, 6 days of treatment, read-out: Toxicity 6d (IC 50, μM) MRC-5
Method in brief: as §2

Ras = test: Ras-dependant signaling pathway analysis (reporter system); format: cell-based; design: key: −: no effect of the compound was observed; +: an effect of the compound was observed
Procedure: (§3) The impact of the compounds on Ras and Rac signaling pathways was analysed with two reporter systems described by Imler (Nature 1988) and Lin (Science, 1995) respectively on one hand, and by a colony formation assay in the presence of constitutively activated Ras (RasV12) and Rac (RacV12) on the other hand. For this latter experiment, fifty percent confluent NIH3T3 cells in a 10 cm diameter petri dish were transfected with 0.5 μg pSV2-RasV12 or 0.5 μg pEXV RacV12 plasmids plus 100 ng of pSV2-neomycin plasmid using Lipofectamine-Plus reagent (Invitrogen) according to the manufacturer's instructions. Forty-eight hours later, cells were trypsinised, splitted to ⅓, and incubated in the presence of complete medium supplemented with 400 μg/ml geneticin (Invitrogen) and different doses of compound (1, 10, 17.5, 25 and 50 μM) until emerging resistant clones appear (2-3 weeks). The medium was renewed every 3 days. Colonies with a minimum of 50 cells were counted after staining with Fuschin 2%.

MDA-MB-231 cells [2] = test: Matrigel invasion assay (Boyden chamber); format: cell-based, human
Method in brief: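 MDA-MB-231 cells were pretreated overnight with compound (1, 10, 17.5, 25, 50 μM). 10^5 cells in serum-free 0.1% BSA medium with compound were placed on 8 μm membranes coated with Matrigel (125 μg/cm^2), with 10% FBS plus compound below. After 6 h at 37 °C, cells on the filter underside were Diff-Quick stained and counted.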

HCT116 = test: Cytoskeleton analysis, actin staining (FITC-phalloidin); format: cell-based, human; conditions: 24 h treatment
Procedure: as §1

H460 = test: as above; format: cell-based, human; conditions: 24 h treatment
Procedure: as §1

[3] = system: HCT116 colon adenocarcinoma; test: Cytotoxicity assay (MTT), 6 days; format: cell-based, human; conditions: Homo sapiens, HCT-116, 144 h, 6 days of treatment, read-out: Toxicity 6d (IC 50, μM) HCT116
Method in brief: as §2

NIH3T3 cells = test: Colony formation assay with constitutively activated Ras (RasV12) and Rac (RacV12); format: cell-based, mouse; design: key to Colony formation: −: no effect of the compound was observed; +: an effect of the compound was observed
Procedure: as §3

MDA-MB-231 cells [4] = test: Migration assay (Boyden chamber, non-coated filters); format: cell-based, human; conditions: MDA-MB-231, Boyden chamber
Procedure: One day after seeding, 10^6 MDA-MB-231 cells were treated overnight with different concentrations of compounds (1, 10, 17.5, 25 and 50 μM). Cells were collected with Versene (Invitrogen), counted with trypan blue exclusion, rinsed twice in serum-free medium containing 0.1% BSA and resuspended in serum-free medium containing 0.1% BSA plus the appropriate concentration of compound. 10^5 treated cells were placed in the upper chamber. Medium containing 10% of FBS plus the appropriate concentration of compound was placed in the lower chamber as a chemoattractant. The Boyden chamber was incubated 6 hours at 37° C. before the cells were fixed and stained with Diff-Quick (Dade-Berhing). Cells on the upper part of the filters were removed using a cotton swab. Cells on the underside of the filters were visualised and counted under light microscope.
The migration assay was performed the same way, using non-coated filters.

HCT116 cells = test: Anchorage-independent growth assay (soft agar / Matrigel); format: cell-based, human; conditions: Homo sapiens, HCT-116, 168 h; HCT116, 3-dimensional growth, 1 week
Procedure: In order to evaluate the effect of the compounds on the capacity of tumor cells to grow without anchorage, HCT116 cells were seeded either in agar or in Matrigel (BD, France). For 3D growth experiment in soft agar in 24-well plates, 5.10^3 HCT116 cells were resuspended in 250 μl of complete medium containing 0.3% soft-agar (Difco) and different concentrations of compound (0.1, 1, 10, 17.5, 25 and 50 μM). Cells were then poured on a solidified layer of medium containing 0.5% of soft-agar plus the compound at the same concentration than in the upper layer. Cells were incubated at 37° C. for 1 week before they were analysed using a phase contrast microscope (Nikon). For 3D growth experiment in Matrigel, 10^4 HCT116 cells were resuspended in 300 μl of complete medium containing 5 mg/ml Matrigel (BD, France) and different concentrations of compound (0.1, 1, 10, 17.5, 25 and 50 μM), and poured in 24-well plates. After solidification at 37° C. for 15 min., complete medium containing the compound was added to each well. Cells were incubated for 1 week before they were collected using Matrisperse (BD, France) according to the manufacturer's instructions. After recovery, alive cells were counted with trypan blue exclusion.

cell architecture = test: Cell architecture modification, phase contrast; format: cell-based; design: key: −: no effect of the compound was observed; +: an effect of the compound was observed

In the case of `CCCc1ccccc1OCCCCCOc1coc(CO)cc1=O` [EH18900, 5-[5-(2-Propylphenyloxy)pentyloxy]-2-(hydroxymethyl)-4H-pyran-4-one], the “Cell architecture modification actin staining (R: ruffles; FC: focal complexes) NIH3T3” value (NIH3T3; 24 h treatment) is reported as “R-, FC+”, the “concentration at which specific inhibition of membrane ruffles and increase in the number of stress fibers was observed” value (NIH3T3; NIH3T3, actin staining) is reported as 10 µM and the IC50 (NIH3T3 mouse fibroblasts) is reported as 0.5 µM. The IC50 (MCF10-A) was 50 µM, the IC50 (H460 lung carcinoma) was 40 µM and the IC50 [1] was > 50 µM. For the same compound, the IC50 (MCF-7 breast carcinoma) was 30 µM, the IC50 (MRC-5) was 17.5 µM and the “Small GTPases activities Ras” value (Ras) was “−”. For the same compound, the “concentration giving an increase in invasive properties of MDA-MB-231 cells” value (MDA-MB-231 cells [2]) was 50 µM, the Invasion (MDA-MB-231 cells [2]; MDA-MB-231, Boyden chamber, matrigel) was “Increase” and the “Cell architecture modification actin staining HCT116” value (HCT116) was “cell spreading”. For the same compound, the “Cell architecture modification actin staining H460” value (H460) was “cell spreading”, the IC50 [3] was 35 µM and the Colony formation (NIH3T3 cells) was “+”. The “Ras-dependent neoR clones formation” value (NIH3T3 cells; NIH3T3 transfected with RasVal12) was “inhibited”, the Migration (MDA-MB-231 cells [4]) was “no effect” and the IC50 (HCT116 cells) was 1 to 5 µM. For the same compound, the “Cell architecture modification phase contrast” value (cell architecture) was “+”.
